According to article PMC9052855 (RSC Advances, 2020):

Assays:
[1] = biological target: T1, jack bean urease (Canavalia ensiformis, UniProt P07374); assay: % urease inhibition assay and IC50; type: biochemical
[2] = biological target: T1, jack bean urease; assay: urease enzyme kinetics study; type: biochemical

T1 sequence (P07374 whole entry, looked up): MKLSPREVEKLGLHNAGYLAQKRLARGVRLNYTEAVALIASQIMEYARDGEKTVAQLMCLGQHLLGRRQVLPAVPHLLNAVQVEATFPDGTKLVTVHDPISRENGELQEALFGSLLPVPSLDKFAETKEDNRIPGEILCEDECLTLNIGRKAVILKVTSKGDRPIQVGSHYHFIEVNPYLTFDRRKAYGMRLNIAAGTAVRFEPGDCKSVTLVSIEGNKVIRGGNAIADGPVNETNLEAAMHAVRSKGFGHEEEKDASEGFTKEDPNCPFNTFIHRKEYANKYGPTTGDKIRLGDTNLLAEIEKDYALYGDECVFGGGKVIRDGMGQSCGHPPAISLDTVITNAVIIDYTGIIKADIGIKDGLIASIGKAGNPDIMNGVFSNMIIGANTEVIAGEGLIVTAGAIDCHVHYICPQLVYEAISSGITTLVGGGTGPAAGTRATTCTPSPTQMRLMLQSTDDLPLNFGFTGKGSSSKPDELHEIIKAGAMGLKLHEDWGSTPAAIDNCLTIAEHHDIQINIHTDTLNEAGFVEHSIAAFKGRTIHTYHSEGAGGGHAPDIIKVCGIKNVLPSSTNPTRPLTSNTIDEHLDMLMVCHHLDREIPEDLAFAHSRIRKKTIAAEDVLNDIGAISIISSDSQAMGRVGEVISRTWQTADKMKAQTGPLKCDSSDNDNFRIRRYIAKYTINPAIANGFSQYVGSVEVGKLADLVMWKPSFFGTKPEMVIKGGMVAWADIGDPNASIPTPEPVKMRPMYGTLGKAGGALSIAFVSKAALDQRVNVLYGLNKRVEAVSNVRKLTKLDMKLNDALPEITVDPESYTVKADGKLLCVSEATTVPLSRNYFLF

Question: With `NC(N)=S` [Thiourea, thiourea] as the molecule, how does the “% inhibition” value ([1]; concentration not given) read?
Answer: Its value is 92.3%.

Question: What about the IC50 ([1]; read-out: IC50 (μM), mean ± SEM, triplicate, mean ± SEM) of the same molecule?
Answer: The IC50 was 22.6 ± 0.23 µM.

Question: And the Mode of inhibition ([2]; Lineweaver–Burk plots, inhibitor 0–20 μM, urea 0.5–4.0 mM)?
Answer: Its Mode of inhibition is “Competitive”.

Question: And the Ki ([2]; calculated from secondary replot (Lineweaver–Burk))?
Answer: The Ki was 18.2 µM.

Question: What about the “Vmax (app)” value ([2]; maximum velocity of enzymatic activity at 20 μM inhibitor concentration) of the same molecule?
Answer: The value was 18.61 µM/min.
